According to PMC11267282, “Ultrashort‐Peptide‐Responsive Gene Switches for Regulation of Therapeutic Protein Expression in Mammalian Cells” (Advanced Science, 2024):
Entries after “also recorded” stand apart in the source; their conditions may differ. Where a SMILES comes first, the peptide text is derived from it.

Legend:
[1] = tested on: engineered mammalian cells; experiment: Resazurin-based cell viability assay
Method: Cells were incubated with resazurin (cat. no. R7017, Sigma‐Aldrich, USA) at a concentration of 50 µg ml^−1 for 2 h. Then fluorescence was assayed with a plate reader (Tecan Spark, Tecan Group Ltd., Switzerland) at excitation and emission wavelengths of 540 and 590 nm, respectively. The fluorescence intensity of non‐induced cells was set to 100%.

HEK-293T cells [2] = experiment: Cell growth kinetics of HEK-293 cells; type: cell-based, human; conditions: non-transformed HEK-293T, 10-250 µM, 48 h, n = 4
Method: (§1) HEK‐293T cells were seeded in a 10 cm diameter dish at a density of 2.5 × 10^5 cells/ml. After 24 h of culture, the cells were transfected with 35 µg of pJH3 (PhCMV‐SEAP‐pA) overnight, then resuspended and evenly distributed into two 24‐well plates. The treatment groups were treated with XIP at the indicated concentration. Samples were collected at successive time points for two days to quantify viable cells and SEAP production.

HEK-293T cells [3] = experiment: Constitutive recombinant SEAP production (pJH3); type: cell-based, human; conditions: pJH3-transfected, 10-250 µM, 48 h, n = 4
Method: as §1
SEAP reporter levels in cell culture supernatants were quantified using a colorimetric assay. In brief, 20 µl of cell culture supernatant was mixed with 80 µl of PBS buffer (cat. no. 14190144, ThermoFisher) and heat‐inactivated at 65 °C for 30 min. Then 80 µl of 2x SEAP assay buffer (20 mM homoarginine, 1 mM MgCl2, 21% diethanolamine, pH 9.8) was mixed with 20 µl of substrate solution, and 100 µl of the buffer‐substrate mixture was added to 100 µl of the diluted heat‐inactivated sample. Absorbance at 405 nm was recorded using a plate reader (Tecan Spark, Tecan Group Ltd., Switzerland) for 30 min at 37 °C to determine the SEAP levels.

[4] = Membrane penetration inferred from intracellular gene switch activation; type: in vitro ADME; conditions: HEK-293T with intracellular ComR switch; inferred from SEAP induction
Method: Human embryonic kidney cells (HEK‐293T, ATCC: CRL‐11268), human telomerase‐immortalized mesenchymal stem cells (hMSC‐TERT),^[ [56] ^] human fibrosarcoma cells (HT‐1080, ATCC: CCL‐121), human cervical adenocarcinoma cells (HeLa, ATCC: CCL‐2), Chinese hamster ovary cells (CHO‐K1, ATCC: CCL‐61), baby hamster kidney cells (BHK‐21, ATCC: CCL‐10), and human liver cancer cells (Hep G2, ATCC: CRL‐11997) were cultured in Dulbecco's modified Eagle's medium (DMEM, cat. no. 52100–39, Thermo Fisher Scientific) containing 10% fetal bovine serum (FBS, cat. no. F7524, lot no. 022M3395, Sigma‐Aldrich) and 1% (v/v) streptomycin/penicillin (cat. no. L0022, Biowest). All mammalian cells were grown at 37 °C in a humidified atmosphere containing 5% CO2. For all transient transfections, 15 000 cells were seeded per well of a 96‐well plate (cat. no. 3599, Corning Inc. Life Sciences) overnight. Cells were transfected by mixing 100 ng of DNA and polyethyleneimine (PEI, 24765‐2, Polysciences) in a ratio of 1:4. […] The cell density was calculated using a cell counter (CellDrop BF Brightfield Cell Counter, DeNovix Inc.)
SEAP reporter levels in cell culture supernatants were quantified using a colorimetric assay. […] Absorbance at 405 nm was recorded using a plate reader (Tecan Spark, Tecan Group Ltd., Switzerland) for 30 min at 37 °C to determine the SEAP levels.

[5] = tested on: CD4 / CD8 T cells of immunized mice; experiment: T-cell response, intracellular cytokine staining; type: in vivo, mouse; conditions: FACS intracellular cytokine staining, spleen and draining lymph nodes, n = 3
Method: Mice were immunized at 2‐week intervals.
Isolated lymphocytes from spleens and lymph nodes were placed in a U‐bottom 96‐well plate and resuspended in 100 µl complete RPMI‐1640 medium, which contains FBS (10% v/v), HEPES (pH 7.2∼7.5, 1% v/v, Gibco), penicillin/streptomycin (1% v/v, Gibco), sodium pyruvate (1% v/v, Gibco) and 2‐mercaptoethanol (0.1% v/v, Gibco). Cells were stimulated with 1 µM cognate peptides or with Cell Stimulation Cocktail (a cocktail of phorbol 12‐myristate 13‐acetate (PMA) and ionomycin, Invitrogen) as positive controls at 37 °C for 4 h, in the presence of 10 µM brefeldin A (MedChemExpress) to inhibit cytokine secretion. Next, the cells were washed with 150 µl FACS buffer, and centrifuged with 1,500 g for 2 min. The supernatant was discarded and the cells were blocked with anti‐CD16/32 antibody (1:100, 93, 101302, BioLegend) in 20 µl/well FACS buffer at 4 °C for 15 min. Then 20 µl/well antibody cocktail containing anti‐CD3ε (1:500, 17A2, 100306, BioLegend), anti‐CD4 (1:500, RM4‐5, 100526, BioLegend), anti‐CD8β (1:500, YTS256.7.7, 126606, BioLegend), and anti‐CD45 (1:500, S18009F, 157211, BioLegend) was added to the cell mixture for 20 min incubation at 4 °C. […] Gate margins were determined on the basis of isotype controls and fluorescence‐minus‐one controls.

[6] = tested on: T1D mice with HEK-XIP implants; experiment: Serum inflammatory cytokines (ELISA); type: in vivo, mouse; conditions: four weeks after implantation, n = 5; for Serum IFN-γ (significance) / Serum TNF-α (significance): vs non-induced; for Serum IL-6: undetectable
Method: The concentrations of interferon gamma (IFN‐γ), interleukin‐6 (IL‐6), and tumor necrosis factor alpha (TNF‐α) in mouse serum were assessed by the use of specific enzyme‐linked immunosorbent assay (ELISA) kits. IFN‐γ levels were analyzed using the IFN gamma mouse ELISA kit (cat. no. ab282874, Abcam), IL‐6 levels were determined with the IL‐6 mouse ELISA kit (cat. no. ab100712, Abcam), and TNF‐α levels were quantified utilizing the TNF alpha mouse ELISA kit (cat. no. BMS607HS, ThermoFisher). Freund's Complete Adjuvant (cat. no.: 344289, Sigma‐Aldrich) and lipopolysaccharides (cat. no.: L2630‐10MG, Sigma‐Aldrich) were utilized to induce cytokine production as positive controls. Blood samples were collected from mice treated with adjuvant and LPS 24 hours post‐treatment. The quantification of cytokines from these groups was conducted using the same ELISA kit.

C57BL/6 mice = experiment: Antibody analysis for peptide immunogenicity; conditions: s.c., three doses of 5 mg kg−1 at two-week intervals, with Freund's adjuvant, OD450, n = 3
Method: Eight‐week‐old wild‐type male mice were immunized for peptide immunogenicity assessments. Briefly, peptide solution was premixed 1:1 with Freund's adjuvant in a total volume of 400 µl by thorough vigorous shaking. Then peptide/adjuvant mixes were injected subcutaneously in 30 min at a dose of 5 mg kg^−1. Mice were immunized at 2‐week intervals. Negative controls (mock‐immunized) were also included in the study. One week after the third dose of immunization, blood was sampled for antibody analysis.
For antibody analysis, the peptides were coated on the EIA/RIA plate (cat. no. 3590, Corning Inc. Life Sciences) in carbonate coating buffer (cat. no. CB01100, ThermoFisher) at 4 °C overnight. The next day the plate was blocked with 20% nonfat milk (cat. no. A0830,1000, AppliChem Panreac) for 24 h at 4 °C, and incubated with antibodies at the indicated dilution or at 37 °C for 1 h. Next, horseradish peroxidase‐linked anti‐mouse IgG (cat. no. LNA931V, GE Healthcare, USA) was added to the plate at a dilution of 1:1000 for 1 h at 37 °C. Between each step, the plate was washed with PBS at least three times. Then, 100 µl ultra TMB substrate solution (cat. no. 34028, ThermoFisher) was added to the plate at room temperature for 15 min, followed by the addition of 50 µl of stop solution (2 M H2SO4). The OD450 was measured by a plate reader (Tecan Spark, Tecan Group Ltd., Switzerland). Mouse anti‐HA antibody (cat. no. 901523, BioLegend, USA, 1:1000 dilution) was used as a positive control.

CC[C@H](C)[C@H](NC(=O)[C@H](CCSC)NC(=O)[C@H](Cc1ccccc1)NC(=O)[C@H](Cc1ccccc1)NC(=O)[C@@H]1CCCN1C(=O)[C@@H](N)C(C)C)C(=O)N[C@@H](Cc1ccc(O)cc1)C(=O)N[C@@H](Cc1ccc(O)cc1)C(=O)O [XIP, sigX/comX-inducing peptide] (H-VPFFMIYY-OH)
Cell viability under overstimulation ([1]; ComREXTRA-expressing HEK-293T, 50/200/500 µmol/L, 24 h, n = 4): ns and no significant difference of cell viability
Cytotoxicity (result in words) ([1]; HEK-293T / HEK-XIP / mammalian cells, concentration range tested): no significant impact on cell viability
Cell viability (significance) ([1]; engineered HEK-293T, ComR operator variants, 150 and 500 µmol/L, n = 4): ns
Cell viability (significance) ([1]; seven cell lines expressing ComREXTRA-based system, 250 μM, n = 4): ns
Cell viability (significance) ([1]; seven cell lines with first system (HEK-293T, hMSC-TERT, HT-1080, HeLa, CHO-K1, BHK21, HepG2), 250 μM, n = 4): ns
Effect on growth kinetics (HEK-293T cells [2]): ns and negligible effect
Effect on constitutive SEAP production (HEK-293T cells [3]): ns and negligible effect
Membrane penetration [4]: penetration ability across the mammalian cell membrane; also recorded: efficiently traverses the mammalian cell membrane
Peptide-specific T-cell response [5]: no peptide‐specific T‐cell response was detected
Serum IFN-γ (significance) [6]: ns
Serum TNF-α (significance) [6]: ns
Serum IL-6 [6]: Below 0.82 pg/ml
Antibody response (C57BL/6 mice): no detectable antibodies’ response
Antibody response (C57BL/6 mice; listed as XIP_WT): ns

CC(C)[C@H](N)C(=O)N1CCC[C@H]1C(=O)N[C@@H](Cc1ccccc1)C(=O)N[C@@H](Cc1ccccc1)C(=O)N[C@@H](Cc1ccc(O)cc1)C(=O)N[C@@H](Cc1ccc(O)cc1)C(=O)O [ID3] (H-VPFFYY-OH)
HEK-XIP cell viability ([1]; 50 and 250 µmol/L, 24 h, n = 4): ns
Peptide-specific T-cell response [5]: no peptide‐specific T‐cell response was detected
Serum IFN-γ (significance) [6]: ns
Serum TNF-α (significance) [6]: ns
Serum IL-6 [6]: Below 0.82 pg/ml
Antibody response (C57BL/6 mice): no detectable antibodies’ response
Antibody response (C57BL/6 mice; listed as XIP_ID3): ns
